Measured values: ChEMBL document CHEMBL4049409, “Structure-based discovery of LpxC inhibitors” (Bioorg Med Chem Lett, 2017)
Converted amounts (≈) assume the structure as drawn.

How the values were obtained:
[1] = system: Pseudomonas aeruginosa; test: Antibacterial activity against Pseudomonas aeruginosa isolate 44 ATCC 27853; format: functional
[2] = target: T1, UDP-3-O-acyl-N-acetylglucosamine deacetylase (Escherichia coli K-12, UniProt P0A725); test: Inhibition of LpxC in Escherichia coli isolate 35 ATCC 25922; set-up: species or system Escherichia coli ATCC 25922
T1 sequence (P0A725 whole entry): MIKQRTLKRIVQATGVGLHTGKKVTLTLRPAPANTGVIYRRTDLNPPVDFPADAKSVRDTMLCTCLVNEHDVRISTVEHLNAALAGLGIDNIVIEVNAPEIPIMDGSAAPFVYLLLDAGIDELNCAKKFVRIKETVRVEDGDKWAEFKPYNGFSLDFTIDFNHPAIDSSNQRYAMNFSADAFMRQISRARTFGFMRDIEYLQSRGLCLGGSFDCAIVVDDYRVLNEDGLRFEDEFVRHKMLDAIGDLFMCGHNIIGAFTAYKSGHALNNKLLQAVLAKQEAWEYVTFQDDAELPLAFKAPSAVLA

[3] = system: Escherichia coli; test: Antibacterial activity against Escherichia coli isolate 35 ATCC 25922; format: functional
[4] = Inhibition of LpxC in Klebsiella pneumoniae isolate 21 ATCC 4352
[5] = target: T2, UDP-3-O-acyl-N-acetylglucosamine deacetylase (Pseudomonas aeruginosa (strain ATCC 15692 / PAO1 / 1C / PRS 101 / LMG12228), UniProt P47205); test: Inhibition of LpxC in Pseudomonas aeruginosa isolate 44 ATCC 27853
T2 sequence (P47205 whole entry): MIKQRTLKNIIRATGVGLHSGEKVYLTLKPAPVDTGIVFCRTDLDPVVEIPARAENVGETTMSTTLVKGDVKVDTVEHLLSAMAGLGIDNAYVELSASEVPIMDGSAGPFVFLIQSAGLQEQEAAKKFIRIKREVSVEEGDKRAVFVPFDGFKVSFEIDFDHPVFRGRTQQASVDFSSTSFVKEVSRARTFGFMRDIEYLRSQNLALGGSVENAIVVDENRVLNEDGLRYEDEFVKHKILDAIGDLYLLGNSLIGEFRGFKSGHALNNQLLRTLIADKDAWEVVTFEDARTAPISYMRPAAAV

[6] = system: Pseudomonas aeruginosa; test: Antibacterial activity against Pseudomonas aeruginosa isolate 839 harboring mexAB-oprM deletion mutant; format: functional
[7] = system: Klebsiella pneumoniae; test: Antibacterial activity against Klebsiella pneumoniae isolate 21 ATCC 4352; format: functional
[8] = system: Acinetobacter baumannii; test: Antibacterial activity against Acinetobacter baumannii focus ID 961025; format: functional
[9] = Inhibition of LpxC in Acinetobacter baumannii focus ID 961025

Compound | MIC [1] [µg/mL] | IC50 [2] [nM] | MIC [3] [µg/mL] | IC50 [4] [nM] | IC50 [5] [nM] | MIC [6] [µg/mL] | MIC [7] [µg/mL] | MIC [8] [µg/mL] | IC50 [9] [nM]
C[C@@H](O)[C@H](N[C@H]1CCc2cc(C#Cc3ccc(CN4CCCCC4)cc3)ccc21)C(=O)NO | 16 (≈ 35.7 µM) | 10 | 0.5 (≈ 1.12 µM) | 5 | 10 | 2 (≈ 4.47 µM) | 0.5 (≈ 1.12 µM) | – | –
CNCCOCc1ccc(C#Cc2ccc3c(c2)CC[C@@H]3N[C@H](C(=O)NO)[C@@H](C)O)cc1 | 16 (≈ 36.6 µM) | 15 | 4 (≈ 9.14 µM) | 11 | 6 | 2 (≈ 4.57 µM) | 0.25 (≈ 0.571 µM) | – | –
C[C@@H](O)[C@H](NC1CCCc2cc(C#Cc3ccc(CN4CCOCC4)cc3)ccc21)C(=O)NO (some centres undefined) | 32 (≈ 69 µM) | 0.3 | 0.25 (≈ 0.539 µM) | 0.2 | 2 | – | < 0.125 | 128 (≈ 276 µM) | 80
C[C@@H](O)[C@H](NC1COCc2cc(C#Cc3ccccc3)ccc21)C(=O)NO (some centres undefined) | 64 (≈ 175 µM) | 2 | 0.25 (≈ 0.682 µM) | 1 | 14 | – | < 0.125 | 32 (≈ 87.3 µM) | 49
CC(N[C@H](C(=O)NO)[C@@H](C)O)c1ccc(C#Cc2ccccc2)cc1 (some centres undefined) | > 64 | 96 | 4 (≈ 11.8 µM) | 64 | 72 | – | 1 (≈ 2.96 µM) | 64 (≈ 189 µM) | 160
C[C@@H](O)[C@H](N[C@H]1CCc2cc(C#Cc3ccc(CN4CCN(C)CC4)cc3)ccc21)C(=O)NO | 8 (≈ 17.3 µM) | 53 | 0.25 (≈ 0.54 µM) | 32 | 30 | 1 (≈ 2.16 µM) | 0.125 (≈ 0.27 µM) | – | –
C[C@@H](O)[C@H](NC1CN(C)Cc2cc(C#Cc3ccccc3)ccc21)C(=O)NO (some centres undefined) | > 128 | 28 | 2 (≈ 5.27 µM) | 18 | 108 | – | 0.5 (≈ 1.32 µM) | > 128 | 310
C[C@@H](O)[C@H](NC1CCOc2cc(C#Cc3ccc(CN4CCOCC4)cc3)ccc21)C(=O)NO (some centres undefined) | 16 (≈ 34.4 µM) | 1 | 2 (≈ 4.3 µM) | 2 | 6 | – | < 0.125 | 64 (≈ 137 µM) | 83
C[C@@H](O)[C@H](NC1CCCCc2cc(C#Cc3ccccc3)ccc21)C(=O)NO (some centres undefined) | > 128 | 109 | 16 (≈ 42.3 µM) | 72 | 333 | – | 2 (≈ 5.28 µM) | > 128 | 1160
C[C@@H](O)[C@H](N[C@H]1CCc2cc(C#Cc3ccc(CN4CCN(CCO)CC4)cc3)ccc21)C(=O)NO | 4 (≈ 8.12 µM) | 20 | 2 (≈ 4.06 µM) | 21 | 14 | 1 (≈ 2.03 µM) | < 0.125 | – | –
C[C@@H](O)[C@H](NCc1ccc(C#Cc2ccccc2)cc1)C(=O)NO | > 128 | 67 | 4 (≈ 12.3 µM) | 48 | 20 | – | 0.5 (≈ 1.54 µM) | 32 (≈ 98.6 µM) | 17
C[C@@H](O)[C@H](NC1CCCc2cc(C#Cc3ccccc3)ccc21)C(=O)NO (some centres undefined) | 32 (≈ 87.8 µM) | 1 | 1 (≈ 2.74 µM) | 0.2 | 5 | – | 0.25 (≈ 0.686 µM) | 16 (≈ 43.9 µM) | 40
C[C@@H](O)[C@H](NC1CCc2cc(C#Cc3ccccc3)ccc21)C(=O)NO (some centres undefined) | 32 (≈ 91.3 µM) | 7 | 0.5 (≈ 1.43 µM) | 5 | 20 | – | 0.125 (≈ 0.357 µM) | 16 (≈ 45.7 µM) | 165
C[C@@H](O)[C@H](NC1COCc2cc(C#Cc3ccc(CN4CCOCC4)cc3)ccc21)C(=O)NO (some centres undefined) | 64 (≈ 137 µM) | 1 | 0.25 (≈ 0.537 µM) | 1 | 6 | – | < 0.125 | 64 (≈ 137 µM) | 25
CCCCC(N[C@H](C(=O)NO)[C@@H](C)O)c1ccc(C#Cc2ccccc2)cc1 (some centres undefined) | > 128 | 534 | 64 (≈ 168 µM) | 724 | 616 | – | 2 (≈ 5.26 µM) | > 128 | 1460
C[C@@H](O)[C@H](NC1CCN(C)c2cc(C#Cc3ccc(CN4CCOCC4)cc3)ccc21)C(=O)NO (some centres undefined) | > 32 | 2 | 2 (≈ 4.18 µM) | 2 | 18 | – | 0.125 (≈ 0.261 µM) | > 32 | 331
COC1CCN(Cc2ccc(C#Cc3ccc4c(c3)CC[C@@H]4N[C@H](C(=O)NO)[C@@H](C)O)cc2)CC1 | 8 (≈ 16.8 µM) | 5 | 0.5 (≈ 1.05 µM) | 6 | 3 | 1 (≈ 2.09 µM) | 0.06 (≈ 0.126 µM) | – | –
C[C@@H](O)[C@H](N[C@H]1CCc2cc(C#Cc3ccc(CN4CC(O)C4)cc3)ccc21)C(=O)NO | 4 (≈ 9.18 µM) | 127 | 4 (≈ 9.18 µM) | – | 63 | 0.5 (≈ 1.15 µM) | 0.125 (≈ 0.287 µM) | – | –
C[C@@H](O)[C@H](N[C@H]1CCc2cc(C#Cc3ccc(CN4CC[C@@H](O)C4)cc3)ccc21)C(=O)NO | 8 (≈ 17.8 µM) | 51 | 2 (≈ 4.45 µM) | 38 | 26 | 1 (≈ 2.22 µM) | 0.5 (≈ 1.11 µM) | – | –
C[C@@H](O)[C@H](N[C@@H]1CCc2cc(C#Cc3ccc(CN4CCOCC4)cc3)ccc21)C(=O)NO | 128 (≈ 285 µM) | 3 | 0.5 (≈ 1.11 µM) | 7 | 8 | – | 0.125 (≈ 0.278 µM) | 64 (≈ 142 µM) | 1990
Cc1nccn1Cc1ccc(C#Cc2ccc3c(c2)CC[C@@H]3N[C@H](C(=O)NO)[C@@H](C)O)cc1 | 8 (≈ 18 µM) | 1 | 0.25 (≈ 0.562 µM) | 2 | 4 | 0.25 (≈ 0.562 µM) | 0.06 (≈ 0.135 µM) | – | –
C[C@@H](O)[C@H](NC1CCN(C)c2cc(C#Cc3ccccc3)ccc21)C(=O)NO (some centres undefined) | > 128 | 2 | 8 (≈ 21.1 µM) | 4 | 15 | – | 1 (≈ 2.64 µM) | > 128 | 124
C[C@@H](O)[C@H](NC1CCc2cc(C#Cc3ccc(CN4CCOCC4)cc3)ccc21)C(=O)NO (some centres undefined) | 8 (≈ 17.8 µM) | 2 | 0.25 (≈ 0.556 µM) | 2 | 4 | – | 0.125 (≈ 0.278 µM) | > 64 | 382
CCCC(N[C@H](C(=O)NO)[C@@H](C)O)c1ccc(C#Cc2ccccc2)cc1 (some centres undefined) | 64 (≈ 175 µM) | 60 | 2 (≈ 5.46 µM) | 53 | 50 | – | 0.25 (≈ 0.682 µM) | 32 (≈ 87.3 µM) | 273
CCC(N[C@H](C(=O)NO)[C@@H](C)O)c1ccc(C#Cc2ccccc2)cc1 (some centres undefined) | > 64 | 215 | 4 (≈ 11.3 µM) | 120 | 214 | – | 2 (≈ 5.67 µM) | > 64 | 566
C[C@@H](O)[C@H](NC1CCOc2cc(C#Cc3ccccc3)ccc21)C(=O)NO (some centres undefined) | 128 (≈ 349 µM) | 11 | 2 (≈ 5.46 µM) | 8 | 13 | – | < 0.125 | 32 (≈ 87.3 µM) | 36
